From patent US8937078B2, “Quinazolinones as prolyl hydroxylase inhibitors” (Janssen Pharmaceutica NV, priority 2009, dated 2015)

Columns and labels:
[1] = system: Hep-3B cells; experiment: Cellular assay: erythropoietin secretion in Hep-3B cells; type: cell-based, human; settings: 100 μM compound, 24 hours, percent of EPO secretion relative to assay control compound 7-[(4-Chloro-phenyl)-(5-methyl-isoxazol-3-ylamino)-methyl]-quinolin-8-ol; for Emax at 100 µM: Homo sapiens, Hep3B, read-out: Cellular % EPO Stimulation
How it was run: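 Hep-3B cells in DMEM with 10% FBS, treated 24 h after plating with compounds at 100 μM final for a further 24 h. Secreted EPO in supernatant measured by MSD electrochemiluminescence sandwich immunoassay with anti-EPO detection antibody.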

[2] = molecular target: T1, human PHD2 (PHD2181-417) (Homo sapiens, UniProt Q9GZT9); experiment: PHD enzymatic assay ([14C]-succinic acid production); type: biochemical; settings: PHD2181-417, HIF-1α peptide 10 μM, average of results; for IC50: read-out: Enzyme pIC50 (converted)
T1 construct: Smt (SUMO) tag (cleaved yes); made in house; host or cells: E. coli BL21 (pBAD vector)
T1 sequence (Q9GZT9 181-417): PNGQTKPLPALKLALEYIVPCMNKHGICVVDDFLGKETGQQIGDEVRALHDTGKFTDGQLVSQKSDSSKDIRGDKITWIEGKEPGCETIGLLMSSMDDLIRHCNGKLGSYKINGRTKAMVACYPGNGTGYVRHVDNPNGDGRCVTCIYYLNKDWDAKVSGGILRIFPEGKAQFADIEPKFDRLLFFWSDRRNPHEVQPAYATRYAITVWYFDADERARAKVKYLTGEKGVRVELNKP
How it was run: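 Activity measured as [14C]-succinic acid formed from [5-14C]-2-oxoglutarate over 10 minutes, with peptide substrate at 10 μM, in Tris-HCl pH 7.5 buffer containing catalase, DTT and ascorbate. Unreacted oxoglutarate removed by DNP derivatisation; supernatant beta-counted.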

Compound	IC50 [2] [nM]	Emax at 100 µM [1] [%]	Cellular % EPO Stimulation [1] [%]	Enzyme pIC50 [2]
O=C(O)c1cnn(-c2nc3ccc(COc4ccccc4)cc3c(=O)[nH]2)c1 [Example 74, 1-(4-Oxo-6-phenoxymethyl-3,4-dihydro-quinazolin-2-yl)-1H-pyrazole-4-carboxylic acid]	31.6	35		
O=C(O)c1cnn(-c2nc3cc(Sc4ccccc4Cl)ccc3c(=O)[nH]2)c1 [Example 80, 1-[7-(2-Chloro-phenylsulfanyl)-4-oxo-3,4-dihydro-quinazolin-2-yl]-1H-pyrazole-4-carboxylic acid]	31.6	5		
NC(CO)(CO)CO.O=C(O)c1cnn(-c2nc3cc(C4CCOCC4)ccc3c(=O)[nH]2)c1 [Example 67, 1-[4-Oxo-7-(tetrahydro-pyran-4-yl)-3,4-dihydro-quinazolin-2-yl]-1H-pyrazole-4-carboxylic acid tris(hydroxymethyl)aminomethane salt]			18	7.8
CC(C)(C)c1ccc2nc(-n3cc(C(=O)O)cn3)[nH]c(=O)c2c1 [Example 19, 1-(6-tert-Butyl-4-oxo-3,4-dihydro-quinazolin-2-yl)-1H-pyrazole-4-carboxylic acid]	39.8	45		
O=C(O)c1cnn(-c2nc3ccc(Oc4cc(Cl)ccc4Cl)cc3c(=O)[nH]2)c1 [Example 40, 1-[6-(2,5-Dichloro-phenoxy)-4-oxo-3,4-dihydro-quinazolin-2-yl]-1H-pyrazole-4-carboxylic acid]	25.1	77		
CC(C)(C)c1cc(Oc2ccc3nc(-n4cc(C(=O)O)cn4)[nH]c(=O)c3c2)cc(C(C)(C)C)c1 [Example 35, 1-[6-(3,5-Di-tert-butyl-phenoxy)-4-oxo-3,4-dihydro-quinazolin-2-yl]-1H-pyrazole-4-carboxylic acid]	31.6	8		
Cc1cccc(C)c1Oc1ccc2nc(-n3cc(C(=O)O)cn3)[nH]c(=O)c2c1 [Example 42, 1-[6-(2,6-Dimethyl-phenoxy)-4-oxo-3,4-dihydro-quinazolin-2-yl]-1H-pyrazole-4-carboxylic acid]	25.1	117		
O=C(O)c1cnn(-c2nc3c(Cl)cccc3c(=O)[nH]2)c1 [Example 14, 1-(8-Chloro-4-oxo-3,4-dihydro-quinazolin-2-yl)-1H-pyrazole-4-carboxylic acid]	251	8		
O=C(O)c1cnn(-c2nc3cc(F)c(Oc4ccc5c(c4)CCC5)cc3c(=O)[nH]2)c1 [Example 58, 1-[7-Fluoro-6-(indan-5-yloxy)-4-oxo-3,4-dihydro-quinazolin-2-yl]-1H-pyrazole-4-carboxylic acid]	31.6	62		
Cc1ccccc1Oc1ccc2nc(-n3cc(C(=O)O)cn3)[nH]c(=O)c2c1 [Example 37, 1-(4-Oxo-6-o-tolyloxy-3,4-dihydro-quinazolin-2-yl)-1H-pyrazole-4-carboxylic acid]	25.1	78		
O=C(O)c1cnn(-c2nc3c(C(F)(F)F)cccc3c(=O)[nH]2)c1 [Example 16, 1-(4-Oxo-8-trifluoromethyl-3,4-dihydro-quinazolin-2-yl)-1H-pyrazole-4-carboxylic acid]	251	16		
Cc1cccc(Oc2ccc3nc(-n4cc(C(=O)O)cn4)[nH]c(=O)c3c2)c1 [Example 36, 1-(4-Oxo-6-m-tolyloxy-3,4-dihydro-quinazolin-2-yl)-1H-pyrazole-4-carboxylic acid]	39.8	22		
O=C(O)c1cnn(-c2nc3cc(F)c(Oc4ccc5ccccc5c4)cc3c(=O)[nH]2)c1 [Example 52, 1-[7-Fluoro-6-(naphthalen-2-yloxy)-4-oxo-3,4-dihydro-quinazolin-2-yl]-1H-pyrazole-4-carboxylic acid]	39.8	76		

Further lines, with some results ahead:

IC50 [2] [nM]	Compound	Emax at 100 µM [1] [%]	Cellular % EPO Stimulation [1] [%]	Enzyme pIC50 [2]
126	O=C(O)c1cnn(-c2nc3cc(OC(F)(F)F)ccc3c(=O)[nH]2)c1 [Example 148, 1-(4-Oxo-7-trifluoromethoxy-3,4-dihydro-quinazolin-2-yl)-1H-pyrazole-4-carboxylic acid]	10		
25.1	O=C(O)c1cnn(-c2nc3cc(F)c(Oc4c(Cl)cccc4Cl)c(F)c3c(=O)[nH]2)c1 [Example 101, 1-[6-(2,6-dichloro-phenoxy)-5,7-difluoro-4-oxo-3,4-dihydro-quinazolin-2-yl]-1H-pyrazole-4-carboxylic acid]	24		
35.5	O=C(O)c1cnn(-c2nc3cc4c(cc3c(=O)[nH]2)CCC4)c1 [Example 140, 1-(4-Oxo-4,6,7,8-tetrahydro-3H-cyclopenta[g]quinazolin-2-yl)-1H-pyrazole-4-carboxylic acid]	62		
126	O=C(O)c1cnn(-c2nc3cc(Cl)cc(Cl)c3c(=O)[nH]2)c1 [Example 132, 1-(5,7-Dichloro-4-oxo-3,4-dihydro-quinazolin-2-yl)-1H-pyrazole-4-carboxylic acid]	16		
100	O=C(O)c1cnn(-c2nc3cc(S(=O)(=O)c4ccccc4Cl)ccc3c(=O)[nH]2)c1 [Example 83, 1-[7-(2-Chloro-benzenesulfonyl)-4-oxo-3,4-dihydro-quinazolin-2-yl]-1H-pyrazole-4-carboxylic acid]	11		
25.1	O=C(O)c1cnn(-c2nc3ccc(-c4cccc(OC(F)(F)F)c4)cc3c(=O)[nH]2)c1 [Example 205, 1-[4-Oxo-6-(3-trifluoromethoxy-phenyl)-3,4-dihydro-quinazolin-2-yl]-1H-pyrazole-4-carboxylic acid]	58		
79.4	COc1ccc2c(=O)[nH]c(-n3cc(C(=O)O)cn3)nc2c1 [Example 135, 1-(7-Methoxy-4-oxo-3,4-dihydro-quinazolin-2-yl)-1H-pyrazole-4-carboxylic acid]	17		
31.6	CC(=O)Nc1ccc2nc(-n3cc(C(=O)O)cn3)[nH]c(=O)c2c1 [Example 167, 1-(6-Acetylamino-4-oxo-3,4-dihydro-quinazolin-2-yl)-1H-pyrazole-4-carboxylic acid]	26		
20	O=C(O)c1cnn(-c2nc3ccc(NCc4ccccc4Cl)cc3c(=O)[nH]2)c1 [Example 174, 1-[6-(2-Chloro-benzylamino)-4-oxo-3,4-dihydro-quinazolin-2-yl]-1H-pyrazole-4-carboxylic acid]	24		
63.1	O=C(O)c1cnn(-c2nc3cc(-c4ccc(Cl)cc4)ccc3c(=O)[nH]2)c1 [Example 187, 1-[7-(4-Chloro-phenyl)-4-oxo-3,4-dihydro-quinazolin-2-yl]-1H-pyrazole-4-carboxylic acid]	24		
20	O=C(O)c1cnn(-c2nc3ccc(Oc4cc(F)cc(C(F)(F)F)c4)cc3c(=O)[nH]2)c1 [Example 97, 1-[6-(3-fluoro-5-trifluoromethyl-phenoxy)-4-oxo-3,4-dihydro-quinazolin-2-yl]-1H-pyrazole-4-carboxylic acid]	37		
79.4	Cc1ccccc1-c1ccc2c(=O)[nH]c(-n3cc(C(=O)O)cn3)nc2c1 [Example 188, 1-(4-Oxo-7-o-tolyl-3,4-dihydro-quinazolin-2-yl)-1H-pyrazole-4-carboxylic acid]	11		
20	O=C(O)c1cnn(-c2nc3cc(F)c(Oc4cccc(C(F)(F)F)c4)cc3c(=O)[nH]2)c1 [Example 95, 1-[7-fluoro-4-oxo-6-(3-trifluoromethyl-phenoxy)-3,4-dihydro-quinazolin-2-yl]-1H-pyrazole-4-carboxylic acid]	61		
79.4	O=C(O)c1cnn(-c2nc3c(F)cc(Br)cc3c(=O)[nH]2)c1 [Example 130, 1-(6-Bromo-8-fluoro-4-oxo-3,4-dihydro-quinazolin-2-yl)-1H-pyrazole-4-carboxylic acid]	12		
25.1	O=C(O)c1cnn(-c2nc3ccc(Oc4cccc(C(F)(F)F)c4F)cc3c(=O)[nH]2)c1 [Example 96, 1-[6-(2-fluoro-3-trifluoromethyl-phenoxy)-4-oxo-3,4-dihydro-quinazolin-2-yl]-1H-pyrazole-4-carboxylic acid]	51		
15.8	O=C(O)c1cnn(-c2nc3ccc(-c4ccccc4OC(F)(F)F)cc3c(=O)[nH]2)c1 [Example 202, 1-[4-Oxo-6-(2-trifluoromethoxy-phenyl)-3,4-dihydro-quinazolin-2-yl]-1H-pyrazole-4-carboxylic acid]	29		
31.6	CC(C)Oc1ccc2nc(-n3cc(C(=O)O)cn3)[nH]c(=O)c2c1 [Example 104, 1-(6-isopropoxy-4-oxo-3,4-dihydro-quinazolin-2-yl)-1H-pyrazole-4-carboxylic acid]	75		
39.8	O=C(O)c1cnn(-c2nc3cc(Cl)c([S+]([O-])C(F)(F)F)cc3c(=O)[nH]2)c1 (stereo not shown) [Example 160, 1-(7-Chloro-4-oxo-6-trifluoromethanesulfinyl-3,4-dihydro-quinazolin-2-yl)-1H-pyrazole-4-carboxylic acid]	13		
39.8	O=C(O)c1cnn(-c2nc3ccc(NCc4c(F)cccc4F)cc3c(=O)[nH]2)c1 [Example 176, 1-[6-(2,6-Difluoro-benzylamino)-4-oxo-3,4-dihydro-quinazolin-2-yl]-1H-pyrazole-4-carboxylic acid]	26		
